# Measured values published in patent US9340492B2, “Meta-Diarylaniline or meta-diarylpyridinamine compound, preparation method and medical uses thereof” (INSTITUTE OF PHARMACOLOGY AND TOXICOLOGY ACADEMY OF …, priority 2012, dated 2016).
# pEC50: −log10 of the molar value. Where two headings read alike, the source gives them in different places.
# Legend:
# [1] = TZM-bl cytotoxicity assay (XTT); format: cell-based; settings: human, TZM-bl cells, read-out: CC50, concentration effective to inhibit the growth of half of cells
# Method: The assay was carried out by reference to the document (Dang, Z, et al. J. Med. Chem. 2009, 52, 7887-7891). In particular, in a 96-well cell culture plate, solutions of Compounds 1-57 at different concentrations (100 μl) were mixed with an equivalent volume of TZM-bl cells (from National Institutes of Health (NIH)) (5×10^5/mL), and were incubated at 37° C. for 4 d. 50 μl of freshly prepared XTT solution (1 mg/mL) containing 0.02 μM PMS was added. Optical density at 450 nm was measured 4 h later.
# [2] = system: NL4-3 virus (HIV, wild-type); assay: Anti-HIV activity assay (TZM-bl cell model), NL4-3 wild-type; format: cell-based; settings: human, TZM-bl cells infected with HIV-1 NL4-3 virus; CC50 (TZM-bl) / EC50 (NL4-3); read-out: SI, selective index, ratio of toxic CC50 value to active EC50 value
# Method: (§1) The assay was carried out by reference to the document (Dang, Z, et al. J. Med. Chem. 2009, 52, 7887-7891). In particular, in a 96-well cell culture plate, solutions of the compounds to be tested at different concentrations were mixed with TZM-bl cells (from National Institutes of Health (NIH)) infected with 200 TCID50 NL4-3 virus, respectively. 2 days later, the culture medium was removed, 100 μl of Bright Glo reagent was added to each well, and Victor 2 luminometer was used to detect the […] of the cells.
# NL4-3 virus = assay: as above; format: cell-based; settings: read-out: EC50, concentration effective to inhibit the replication of half of viruses
# Method: as §1
# [3] = system: K101E drug-resistant virus; assay: Activity against drug-resistant virus K101E; format: cell-based, HIV; settings: Human immunodeficiency virus 1, read-out: Drug-resistant viruses EC50, K101E
# [4] = Incubation experiment of human liver microsomes; format: in vitro ADME
# [5] = Water-solubility at pH2.0; format: physicochemical; settings: aqueous medium (water) at pH 2.0, pH 2, simulated gastric fluid
# [6] = Human immunodeficiency virus 1, NL43, NL4-3 HIV wild-type, TZM-bl cells
SMILES,melting point,CC50 at 4 d [1],selectivity ratio at 2 days [2],pEC50 (NL4-3 virus; [6]),other results
"Cc1cc(/C=C/C#N)cc(C)c1Oc1cc(Nc2ccc(C#N)cc2)c([N+](=O)[O-])cc1C(F)(F)F [Compound 1, 5-(4″-cyanovinyl-2″,6″-dimethylphenoxy)-N^1-(4′-cyanophenyl)-4-trifluoromethyl-2-nitroaniline]",248 to 250 °C,,,,
"COC(=O)c1cc([N+](=O)[O-])c(Nc2ccc(C#N)cc2)cc1Oc1c(C)cc(/C=C/C#N)cc1C [Compound 3, 5-(4″-cyanovinyl-2″,6″-dimethylphenoxy)-N^1-(4′-cyanophenyl)-4-methoxycarbonyl-2-nitroaniline]",260 to 262 °C,,,,
"Cc1cc(/C=C/C#N)cc(C)c1Oc1cc(Nc2ccc(C#N)cc2)c([N+](=O)[O-])cc1CO [Compound 5, N^1-(4′-cyanophenyl)-5-(4″-cyanovinyl-2″,6″-dimethylphenoxy)-4-hydroxymethyl-2-nitroaniline]",232 to 234 °C,,,,
"Cc1cc(/C=C/C#N)cc(C)c1Oc1cc(Nc2ccc(C#N)cc2)c([N+](=O)[O-])cc1C(=O)O [Compound 7, 4-carboxyl-5-(4″-cyanovinyl-2″,6″-dimethylphenoxy)-N^1-(4′-cyanophenyl)-2-nitroaniline]",262 to 265 °C,,,,
Cc1cc(/C=C/C#N)cc(C)c1Oc1cc(Nc2ccc(C#N)cc2)c([N+](=O)[O-])cc1C(N)=O [Compound 9],278 to 280 °C,,,,
"Cc1cc(CCC#N)cc(C)c1Oc1cc(Nc2ccc(C#N)cc2)c(N)cc1C(N)=O [Compound 10, 4-carbamoyl-N^1-(4′-cyanophenyl)-5-(4″-cyanoethyl-2″,6″-dimethylphenoxy)-1,2-phenylenediamine]",,> 9400 nM,> 6760,8.86,
"CNC(=O)c1cc([N+](=O)[O-])c(Nc2ccc(C#N)cc2)cc1Oc1c(C)cc(/C=C/C#N)cc1C [Compound 11, N^1-(4′-cyanophenyl)-5-(4″-cyanovinyl-2″,6″-dimethylphenoxy)-4-(N-methylacylamino)-2-nitroaniline]",218 to 220 °C,,,,
"CNC(=O)c1cc(N)c(Nc2ccc(C#N)cc2)cc1Oc1c(C)cc(CCC#N)cc1C [Compound 12, 5-(4″-cyanoethyl-2″,6″-dimethylphenoxy)-N^1-(4′-cyanophenyl)-4-(N-methyl-carbamoyl)-1,2-phenylenediamine]",,> 9100 nM,> 3330,,"pEC50 [3]: 7.85; HLM t1/2 [4]: 55.7 min; pEC50 (NL4-3 virus; Human immunodeficiency virus 1, NL43, TZM-bl): 8.56; solubility [5]: 8.28 µg/mL"
"Cc1cc(/C=C/C#N)cc(C)c1Oc1cc(Nc2ccc(C#N)cc2)c([N+](=O)[O-])cc1S(N)(=O)=O [Compound 13, N-(4′-cyanophenyl)-5-(4″-cyanovinyl-2″,6″-dimethylphenoxy)-4-aminosulfonyl-2-nitroaniline]",198 to 200 °C,,,,
"CCCc1cc(C)c(Oc2ccc(N)c(Nc3ccc(C#N)cc3)n2)c(C)c1 [Compound 16, N^2-(4-cyanoanilinyl)-6-(2,6-dimethyl-4-propylphenoxy)-3-aminopyridine]",,16400 nM,1120,7.83,
"Cc1cc(CO)cc(C)c1Oc1cc(Nc2ccc(C#N)cc2)c([N+](=O)[O-])cc1CO [Compound 17, N-(4′-cyanophenyl)-5-(4″-hydroxymethyl-2″,6″-dimethylphenoxy)-4-hydroxymethyl-2-nitroaniline]",216 to 218 °C,,,,
"Cc1cc(CO)cc(C)c1Oc1cc(Nc2ccc(C#N)cc2)c(N)cc1CO [Compound 18, N^1-(4′-cyanophenyl)-5-(4″-hydroxymethyl-2″,6″-dimethylphenoxy)-4-hydroxymethyl-1,2-phenylenediamine]",,> 15900 nM,> 1590,8.00,
"N#CCCc1cc(F)c(Oc2ccc(N)c(Nc3ccc(C#N)cc3)n2)c(F)c1 [Compound 21, N^2-(4-cyanoanilinyl)-6-(2,6-difluoro-4-cyanoethyl-phenoxy)-3-aminopyridine]",,> 10200 nM,> 3640,8.55,
"COC(=O)CCc1cc(F)c(Oc2ccc(N)c(Nc3ccc(C#N)cc3)n2)c(F)c1 [Compound 23, N^2-(4-cyanoanilinyl)-6-(2,6-difluoro-4-methyl propionatephenoxy)-3-aminopyridine]",,> 15300 nM,> 155,7.00,
"N#Cc1ccc(Nc2nc(Oc3c(F)cc(CCCO)cc3F)ccc2N)cc1 [Compound 24, N^2-(4-cyanoanilinyl)-6-(2,6-difluoro-4-(3-hydroxypropyl)phenoxy)-3-aminopyridine]",,> 25200 nM,> 525,7.32,
COc1cc(/C=C/C#N)cc(Br)c1Oc1ccc(N)c(Nc2ccc(C#N)cc2)n1 [Compound 26B],,21300 nM,1210,7.59,
"CC(=O)/C=C/c1cc(F)c(Oc2ccc([N+](=O)[O-])c(Nc3ccc(C#N)cc3)n2)c(F)c1 [Compound 29, N^2-(4-cyanoanilinyl)-6-(2,6-difluoro-4-((E)-1-methyleneacetonyl)phenoxy)-3-nitropyridine]",275 to 277 °C,,,,
"CC(=O)CCc1cc(F)c(Oc2ccc(N)c(Nc3ccc(C#N)cc3)n2)c(F)c1 [Compound 30, N^2-(4-cyanoanilinyl)-6-(2,6-difluoro-4-(2-butanonyl)phenoxy)-3-aminopyridine]",,> 9800 nM,> 2130,8.33,
"Cc1cc(CCC#N)cc(C)c1Oc1cc(Nc2ccc(C#N)cc2)c(N)cc1N [Compound 35, 5-(4″-cyanoethyl-2″,6″-dimethylphenoxy)-N^1-(4′-cyanophenyl)-4-amino-1,2,4-triaminobenzene]",118 to 120 °C,> 5000 nM,> 820,8.21,
"Cc1cc(CCC#N)cc(C)c1Oc1cc(Nc2ccc(C#N)cc2)c(N)cc1C(=O)NN [Compound 36, 5-(4″-cyanoethyl-2″,6″-dimethylphenoxy)-N^1-(4′-cyanophenyl)-4-formhydrazide-1,2-phenylenediamine]",,> 22700 nM,> 1190,7.72,
"CC(=O)OCc1cc(N)c(Nc2ccc(C#N)cc2)cc1Oc1c(C)cc(CCC#N)cc1C [Compound 37, 4-acetyloxymethyl-N^1-(4′-cyanophenyl)-5-(4″-cyanoethyl-2″,6″-dimethylphenoxy)-1,2-phenylenediamine]",,> 5000 nM,> 1520,8.48,
"COCc1cc(N)c(Nc2ccc(C#N)cc2)cc1Oc1c(C)cc(CCC#N)cc1C [Compound 38, N^1-(4′-cyanophenyl)-5-(4″-cyanoethyl-2″,6″-dimethylphenoxy)-4-methoxymethyl-1,2-phenylenediamine]",,> 5000 nM,> 2290,8.66,
"Cc1cc(CCC#N)cc(C)c1Oc1cc(Nc2ccc(C#N)cc2)c(N)cc1COC(=O)C1CC1 [Compound 39, N^1-(4′-cyanophenyl)-5-(4″-cyanoethyl-2″,6″-dimethylphenoxy)-4-cyclopropionyloxymethyl-1,2-phenylenediamine]",,> 5000 nM,> 3070,8.79,
"Cc1cc(CCC#N)cc(C)c1Oc1cc(Nc2ccc(C#N)cc2)c(N)cc1CN(C)C [Compound 40, N^1-(4′-cyanophenyl)-5-(4″-cyanoethyl-2″,6″-dimethylphenoxy)-4-[N,N-dimethylaminomethyl]-1,2-phenylenediamine]",,> 5000 nM,> 1830,8.56,
CCNC(=O)c1cc(N)c(Nc2ccc(C#N)cc2)cc1Oc1c(C)cc(CCC#N)cc1C [Compound 41],,> 5000 nM,> 1080,8.33,
"Cc1cc(CCC#N)cc(C)c1Oc1cc(Nc2ccc(C#N)cc2)c(N)cc1C(=O)N(C)C [Compound 42, N^1-(4′-cyanophenyl)-5-(4″-cyanoethyl-2″,6″-dimethylphenoxy)-4-[N,N-dimethylformamido]-1,2-phenylenediamine]",,> 5000 nM,> 810,8.21,
"Cc1cc(CCC#N)cc(C)c1Oc1cc(Nc2ccc(C#N)cc2)c(N)cc1C(=O)NC1CC1 [Compound 43, N^1-(4′-cyanophenyl)-5-(4″-cyanoethyl-2″,6″-dimethylphenoxy)-4-[N-cyclopropylformamido]-1,2-phenylenediamine]",,> 5000 nM,> 3760,8.88,
